Consider eleven compounds from patent US9938269B2, “Inhibitor compounds of phosphodiesterase type 10A” (ABBVIE INC., priority 2011, dated 2018).

In data set [1] the test system is catalepsy in rats. As to conditions: cited from earlier work.
The test system of data set [2] is hyperactivity in rats induced by PCP. Particulars: cited from earlier work.
Data set [3] deals with amphetamine-induced hyperactivity. As to conditions: rat, in vivo; cited from earlier work.
For data set [4] the following is noted: after systemic administration; cited from earlier work.
For data set [5], the target named is T1, PDE10A (human) (Homo sapiens, UniProt Q9Y233).
T1 construct: purchased BPS Bioscience
Put plainly: Measurement of PDE activity (HTRF cAMP kit), human PDE10A. The data set is classed as biochemical. As to conditions: PDE enzymatic reaction, substrate 20 nM for PDE10, 60 minutes at 29 C. The gist of the method: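 Recombinant human PDE10A (10–250 pM range across PDEs) with 20 nM cAMP substrate in 20 mM Tris-HCl pH 7.5, 10 mM MgCl2, 0.1% BSA, compound pre-mixed with enzyme. Ran 60 min at 29 °C. Remaining cAMP read by HTRF, converted to % of uninhibited activity, and IC50 fitted.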

Data set [6] is described as follows: in vitro. Particulars: rat, microsomes, pH 7.4.
A short description of data set [7]: in vitro. As to conditions: human, microsomes, pH 7.4.
Data set [8] in a line: Determination of the microsomal half-life, rat liver microsomes. Particulars: rat, liver microsomes, pH 7.4.
The nature of data set [9]: Determination of the microsomal half-life, human liver microsomes. As to conditions: human, liver microsomes, pH 7.4.

Where a name gives a salt, the structure may show the parent alone.

T1 sequence (Q9Y233 whole entry): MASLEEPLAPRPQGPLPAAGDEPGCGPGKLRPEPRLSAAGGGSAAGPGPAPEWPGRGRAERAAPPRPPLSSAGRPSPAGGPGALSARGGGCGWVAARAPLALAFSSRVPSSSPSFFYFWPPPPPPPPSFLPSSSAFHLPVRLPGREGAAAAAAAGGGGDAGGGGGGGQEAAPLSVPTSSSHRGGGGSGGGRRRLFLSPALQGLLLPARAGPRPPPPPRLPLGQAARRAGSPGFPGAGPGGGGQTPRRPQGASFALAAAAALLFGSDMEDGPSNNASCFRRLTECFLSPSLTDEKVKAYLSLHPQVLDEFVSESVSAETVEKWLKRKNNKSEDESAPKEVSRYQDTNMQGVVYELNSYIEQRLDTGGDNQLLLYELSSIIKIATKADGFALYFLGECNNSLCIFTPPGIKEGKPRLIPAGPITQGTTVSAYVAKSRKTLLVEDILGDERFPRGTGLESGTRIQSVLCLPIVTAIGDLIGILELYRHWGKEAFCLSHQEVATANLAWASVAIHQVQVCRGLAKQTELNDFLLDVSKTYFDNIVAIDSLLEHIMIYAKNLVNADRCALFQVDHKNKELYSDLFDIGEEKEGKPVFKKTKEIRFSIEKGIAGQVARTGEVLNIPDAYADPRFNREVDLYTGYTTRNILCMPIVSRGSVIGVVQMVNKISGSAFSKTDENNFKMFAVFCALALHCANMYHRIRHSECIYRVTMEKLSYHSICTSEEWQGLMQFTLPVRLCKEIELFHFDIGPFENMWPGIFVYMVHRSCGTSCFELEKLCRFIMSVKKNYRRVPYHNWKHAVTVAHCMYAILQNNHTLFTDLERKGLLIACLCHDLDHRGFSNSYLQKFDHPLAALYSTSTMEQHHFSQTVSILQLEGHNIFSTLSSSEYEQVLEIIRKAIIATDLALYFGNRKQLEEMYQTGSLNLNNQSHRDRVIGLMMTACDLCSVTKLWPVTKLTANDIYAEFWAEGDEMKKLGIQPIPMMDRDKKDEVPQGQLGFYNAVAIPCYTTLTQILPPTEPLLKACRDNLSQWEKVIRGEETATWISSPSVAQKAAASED

Take `COc1ccc(Cc2nccc3cc(OC)c(OC)cc23)cc1OC` [Papaverine, papaverine]: the “catalepsy on its own” value in data set [1] (papaverine alone) is recorded as “did not cause catalepsy on its own”. Besides, the “cataleptic effect of the D2 receptor antagonist haloperidol” value in data set [1] (together with haloperidol) is given as “potentiated the cataleptic effect”. The “hyperactivity induced by PCP” value in data set [2] is “reduced hyperactivity”. For the same compound, the “reduction of amphetamine-induced hyperactivity” value in [3] is listed as “insignificant”. Also, the exposure half-life entry in [4] is reported as “very short”.

`O=C1c2c(cccc2N2C3CCC2CNC3)CN1CCc1ccc2ccccc2n1` [Example 103, 7-(3,8-Diaza-bicyclo[3.2.1]oct-8-yl)-2-(2-quinolin-2-yl-ethyl)-2,3-dihydro-isoindol-1-one] came in with an IC50 in data set [5] of 0.2 to 0.5 µM. Moreover, the microsomal CLint at 0.5 μM in data set [6] and in [7] was less than 100 µL/min/mg in each case.

`O=C1c2c(N3CCOCC3)ccnc2CN1CCc1ccc(-c2ccccc2)cn1` [compound 486, 4-Morpholino-6-[2-(5-phenyl-2-pyridyl)ethyl]-7H-pyrrolo[3,4-b]pyridin-5-one] displayed an IC50 in data set [5] of less than 0.1 µM. Moreover, the values for the microsomal CLint at 0.5 μM in [8] and in [9] were greater than 220 µL/min/mg and 100 to 220 µL/min/mg, respectively.

The compound `CN(C)Cc1ccc(-c2cccc3c2C(=O)N(CCc2ccc4ccccc4n2)C3)cc1` [Example 188, 7-(4-Dimethylaminomethyl-phenyl)-2-(2-quinolin-2-yl-ethyl)-2,3-dihydro-isoindol-1-one (dihydrochloride)] returned an IC50 in data set [5] of 0.2 to 0.5 µM. Also, the microsomal CLint at 0.5 μM in data set [8] and in [9] was 100 to 220 µL/min/mg in each case.

Regarding `O=C1c2c(cccc2-c2ccc3[nH]cnc(=O)c3c2)CN1CCc1ccc2ccccc2n1` [Example 7, 6-[3-oxo-2-(2-quinolin-2-yl-ethyl)-2,3-dihydro-1H-isoindol-4-yl]-1H-quinazolin-4-one trifluoroacetate], the IC50 in data set [5] is 0.2 to 0.5 µM. The microsomal CLint at 0.5 μM in [8] and in data set [9] was 100 to 220 µL/min/mg in each case.

For `O=C1c2c(cccc2N2CCS(=O)(=O)CC2)CN1CCc1nc2ccccc2[nH]1` [Example 175, 2-[2-(1H-Benzoimidazol-2-yl)-ethyl]-7-(1,1-dioxo-thiomorpholin-4-yl)-2,3-dihydro-isoindol-1-one], the IC50 in data set [5] was 0.1 to 0.2 µM. Besides, the microsomal CLint at 0.5 μM in [8] and in data set [9] was less than 100 µL/min/mg each time.

Take `COc1ccc(-c2ccnn2C)c2c1CN(CCc1ccc3ccccc3n1)C2=O` [Example 210, 4-Methoxy-7-(2-methyl-2H-pyrazol-3-yl)-2-(2-quinolin-2-yl-ethyl)-2,3-dihydro-isoindol-1-one]: in data set [5], the IC50 was less than 0.1 µM. The microsomal CLint at 0.5 μM was greater than 220 µL/min/mg in data set [8] and 100 to 220 µL/min/mg in [9].

Turning to `O=C1c2c(cccc2N2CCC3(COC3)C2)CN1CCc1ccc2ccccc2n1` [Example 134, 7-(2-Oxa-6-aza-spiro[3.4]oct-6-yl)-2-(2-quinolin-2-yl-ethyl)-2,3-dihydro-isoindol-1-one], the IC50 in data set [5] is less than 0.1 µM. The microsomal CLint at 0.5 μM in data set [8] was 100 to 220 µL/min/mg; in [9] it was greater than 220 µL/min/mg.

Consider `Cn1c(CCN2Cc3nccc(-c4cccnc4)c3C2=O)nc2ccccc21` [Example 368, 6-[2-(1-Methyl-1H-benzoimidazol-2-yl)-ethyl]-4-pyridin-3-yl-6,7-dihydro-pyrrolo[3,4-b]pyridin-5-one], for which the IC50 in [5] was less than 0.1 µM. Besides, the microsomal CLint at 0.5 μM in [8] and in data set [9] was less than 100 µL/min/mg in each case.

In the case of `O=C1c2c(-c3ccncc3)ccnc2CN1CCc1cn2ccccc2n1` [Example 369, 6-(2-Imidazo[1,2-a]pyridin-2-yl-ethyl)-4-pyridin-4-yl-6,7-dihydro-pyrrolo[3,4-b]pyridin-5-one], the IC50 in data set [5] was less than 0.1 µM. The microsomal CLint at 0.5 μM in data set [8] and in data set [9] was less than 100 µL/min/mg in each case.

As to `Cn1nccc1-c1cccc2c1CN(CCc1ccc3ccccc3n1)C2=O` [Example 202, 4-(2-Methyl-2H-pyrazol-3-yl)-2-(2-quinolin-2-yl-ethyl)-2,3-dihydro-isoindol-1-one trifluoroacetate], in [5], the IC50 was less than 0.1 µM. Also, the microsomal CLint at 0.5 μM in data set [8] was greater than 220 µL/min/mg; in [9] it was 100 to 220 µL/min/mg.
